Values joined by “and” are separate entries in the source; they are usually repeats but may differ in a detail not shown here. Identical values can stand only once.

This assay relates to HEK293 cells stably expressing αS-A53T-YFP. As to the kind of experiment: HEK cells transfected with αS aggregated with or without ligand: inclusions (ProteoStat dye, confocal). The assay is classed as cell-based, human. Here is the method:
The aggregation of endogenous monomeric αS-A53T-YFP into fibers can be detected by the intracellular fluorescent puncta (Fig. 3a, + αS). A solution of 100 μM αS was aggregated in the absence and presence of NS132 at an equimolar ratio for four days. The resulting solutions of αS fibers (5 μM in monomeric αS, ±NS132) were introduced to HEK cells in the presence of Lipofectamine 3000 for 24 h. In contrast to the control (no fibers), we observed a significant number of fluorescent inclusions in the presence of αS fibers (Fig. 3a, white arrows, +αS), which was a consequence of the templating of endogenous monomeric αS-A53T-YFP by the exogenously added αS fibers. […] Moreover, we observed the colocalization of an adaptor protein, p62, in the aggresome of αS inclusions in HEK cells (Fig. 3b, +αS, red),[51]–[54]. […] The autophagy machinery regulates many vital cellular processes and its impairment due to αS aggregation can lead to PD and other neurodegenerative disorders[51]–[54]. […] We also quantified the inclusions (αS-A53T-YFP) using a ProteoStat dye-based high throughput 96-well plate reader-based assay recently developed in our lab[24]. The ProteoStat dye-based intensity of HEK cells treated with αS fibers was ~4-5 fold higher than the control (no fibers) (Fig. 3c, +αS, black). […] Therefore, we used HEK cells to test the cytotoxicity of the aggregated solution of αS in the absence and presence of NS132 (Fig. 3d). The viability of HEK cells was measured using the (3-(4,5-dimethylthiazol-2-yl)-2,5-diphenyltetrazolium bromide) (MTT) reduction based assay.
The Lipofectamine solution was made fresh for each transfection to avoid possible denaturation of reagents in a stored stock solution. For each transfection protocol, the total volume of lipofectamine solution required is equivalent to 30% of the total volume of αS/lipofectamine solution needed. […]
This assay was performed based on a previous protocol with slight modifications. […] The resulting cell pellets were then homogenized, transferred into an autoclaved 1.7 mL microcentrifuge tube, and counted to normalize the data. […]

On to `Cc1ccc(NC(=O)c2ccc(NC(=O)c3ccc([N+](=O)[O-])c(NCCc4c[nH]c5ccccc45)n3)c(NCC3CCCCC3)n2)c(OCC(=O)O)n1` [NS132], for which the “intracellular αS-A53T-YFP inclusions (confocal), in words” value (HEK293 cells transfected with αS aggregated in the presence of NS132) was “significant decrease”. Besides, the “ProteoStat intensity versus control (no fibers), in words” value (HEK cells + 5 μM αS aggregated with equimolar NS132) was “did not observe a significant difference”. Besides, the “ProteoStat dye intensity (raw), individual experiments” value (HEK cells + 5 μM αS fibers aggregated with equimolar NS132, 24 h) is 538 and 599 and 420 and 486 and 619 and 476 and 665 and 696 and 519 and 621 and 647 and 693.

For the origin of these results see PMC11061149, “Protein mimetic 2D FAST rescues alpha synuclein aggregation mediated early and post disease Parkinson’s phenotypes” (Nature Communications, 2024).
